Structures are written as SMILES.

The test system of one data set is arthritis pain in rats. Nature of the data set: Arthritis pain test on rats (suppression of the arthritis pain in rats). To be noted: Rattus norvegicus, po, 3 h after administration; dosage protecting 50% of the treated animals against pain. In kind it is in vivo, male rats of the OFA strain. On the procedure:
(§1) Such tests, for instance, compare the pain allaying effect of the test compound in the arthritis pain test with the sedative and muscle relaxing effects which impair the normal activity of rats.
1. Arthritis pain test on rats.
Male rats of the OFA strain, weighing between 160 g. and 180 g. are anesthetized by intraperitoneal administration of 20 mg./kg. of Pentobarbital Sodium. 0.1 ml. of a suspension of 0.6 mg. of Mycobacterium Smegmae (SI043) in paraffin oil are injected intracutaneously into the left hind paw of the rats. Fourteen days thereafter, when a pronounced secondary arthritis has developed especially in the right hind paw of the rats, the effects of the test compounds are investigated. For this purpose a control measurement is carried out thirty minutes before administration of the compound to be tested by deflecting three times the ankle joints of the right hind paws of the test animals and counting the number of distress sounds emitted by them. […] The ankle joint deflecting procedure is repeated three hours after oral administration of the compounds to be tested. Animals which emit distress sounds either only once or not at all are considered as being protected against pain. The dosage by which protection against pain is achieved in 50% of the treated animals is designated as the effective dosage ED50.

A further data set can be described thus: Acute toxicity on mice. The conditions noted are these: mouse, in vivo, po, read-out: Acute toxicity on mice ED50.
Data set [1] in a line: Inhibition of the locomotion exploratory activity according to Janssen (suppression of the locomotor exploration activity on rats). The arrangement: species or system male rats of the Sprague-Dawley type. To be noted: rat, in vivo, po, 1 h before test; dosage corresponding to 9 points for six pairs of rats.
Description: as §1
2. Determination of the inhibition of the locomotion exploratory activity according to the method described by Janssen in "Psychopharmakologie", vol. 1 (1961), pages 141-146.
The compound to be tested is orally administered in the form of a suspension in 2% Tylose solution to male rats of the Sprague-Dawley type one hour before starting the test. Six pairs of rats are used for each dosage to be administered. Each pair of rats is then placed into an environment which is entirely unknown to them. The locomotor activity of said rats with respect to the exploration and inquisitiveness phase within the first thirty seconds is observed and recorded by two observers. The observed activity is evaluated according to a point system. According to said system the highest possible number of points for six pairs of rats amounts to 18 points. That dosage which corresponds to 9 points for six pairs of rats is designated as ED50.

As usually defined, the ED50 is the midpoint of the dose-response relation. A low value points to greater potency. `COCC1CN=C(c2ccccc2Cl)c2cc(Br)ccc2N1C` (centres unmarked) [compound 1, 1-methyl-7-bromo-2-methoxy methyl-5-(2-chlorophenyl)-1H-2,3-dihydro-1,4-benzo diazepine]: it took a dose of 4.8 mg/kg to reach the 50% effect level in the data set on arthritis pain in rats (ED50). Also, the LD50 in the data set “Acute toxicity on mice” amounted to 2390 mg/kg. This molecule also yielded an ED50 at 1 h in data set [1] of 56.2 mg/kg.
Consider `COCC1CN=C(c2ccccc2Cl)c2cc(Cl)ccc2N1C` (centres unmarked) [compound 2, 1-methyl-7-chloro-2-methoxy methyl-5-(2-chlorophenyl)-1H-2,3-dihydro-1,4-benzo diazepine], for which the ED50 in the data set on arthritis pain in rats stood at 10 mg/kg. In addition, the LD50 in the data set “Acute toxicity on mice” was 1470 mg/kg. In data set [1], this molecule had an ED50 at 1 h of 55.5 mg/kg.
For `CN1C(=O)CN=C(c2ccccc2)c2cc(Cl)ccc21` [Diazepam, 7-chloro-1-methyl-5-phenyl-1,3-dihydro-2H-1,4-benzo diazepin-2-one, reference compound], it took a dose of 6.2 mg/kg to reach the 50% effect level in the data set on arthritis pain in rats (ED50). For the same molecule, in data set [1], the ED50 at 1 h is 11.5 mg/kg.

(Values after patent US4482548A, “Analgesic pharmaceutical compositions containing 5-phenyl-1,4-benzo diazepine compounds and a method of using same” (Kali-Chemie Pharma GmbH, priority 1982, dated 1984).)
